Data on 3 molecules can be found in patent US7553652B2, “Process for the preparation of (S)- or (R)-3,3,3-trifluoro-2-hydroxy-2-methylpropionic acid” (Lonza AG, priority 1996, dated 2009).

Data set [1] concerns amidohydrolase. In words: Enzyme characterization with heat-treated cell-free extract. The following applies: for effect of methanol on the amidohydrolase: methanol 5 to 20%, 40 and 60° C., substrate 1% (64 mM), 100 mM CAPS buffer pH 10.0. Type of data set: biochemical, Klebsiella oxytoca PRS1K17 (DSM 11623). As for the experimental part:
A heat-treated cell-free extract was employed for characterizing the amidase. Cells of Klebsiella oxytoca PRS1K17 (DSM 11623) (OD650=160) were disrupted by passing through a French press at 19000 psi (1309 bar). Benzonase (1 μl×30 ml extract^−1) was added, and the extract was then centrifuged for 1 hour at 20000×g. The supernatant (approx. 20 mg×ml^−1 protein) was heated for 10 minutes at 70° C. and the precipitated protein was then removed by centrifugation. The supernatant (approx. 2.0 mg×ml^−1) was concentrated to 5.0 mg×ml^−1 protein and then stored at −20° C. The heat treatment removed approx. 90% of undesired protein. Up to a protein concentration of 0.5 mg×ml^−1, the reaction rate was in direct proportion to the protein concentration. A protein concentration of 0.2 mg×ml^−1 was therefore routinely employed in the tests. To determine the pH optimum, the concentration of (R,S)-2,2-HTFMPA (substrate) was 0.5% (32 mM) and the temperature was 40° C. The buffers listed in Table 4 were employed in the test.
The effect of the temperature on the reaction was determined in 100 mM CAPS buffer (pH 10.0) at a substrate concentration of 0.5% (32 mM). The effect of the substrate concentration was determined at 60° C. in 100 mM CAPS buffer (pH 10.0), and the effect of methanol at 40 and 60° C. at a substrate concentration of 1% (64 mM) in 100 mM CAPS buffer (pH 10.0). […] The temperature optimum is 70° C. […] 10.4 Enzyme Immobilization

Data set [2] is described as follows: Activity and stability of enzyme immobilized on Eupergit C. Type of data set: biochemical, Klebsiella oxytoca. The following applies: 60° C., 4% racemic amide in 100 mM CAPS buffer (pH 10). The method, then: The heat-treated cell-free extract was immobilized using Eupergit C (Röhm GmbH). To this end, Eupergit C (3.0 g) was added to 15 ml of heat-treated cell-free extract (protein concentration: 51 mg) in 1 M potassium phosphate buffer (pH 8.0). The mixture was incubated for 90 hours at room temperature with gentle stirring. The immobilized enzyme was filtered off and washed 4 times with 20 ml of 100 mM potassium phosphate buffer (pH 8.0). Support-bound enzyme (49 mg) gave 9.5 g of immobilized enzyme (fresh weight), which was stored in 100 mM potassium phosphate buffer (pH 10.0) at 4° C. To test the activity and stability of the immobilized enzyme, a small chromatography column was loaded with 5 g (25 mg of protein). A peristaltic pump (0.135 ml×min^−1) was used to circulate the substrate (100 ml 4% racemic amide in 100 mM CAPS buffer (pH 10)) between column and reservoir. The entire process was carried out in a water bath. At certain intervals, samples were taken for analysis. […] Three biotransformations (each with 4 g of racemic substrate, the first having been carried out at 60° C. and the remaining two at 40° C.) gave a total of 6 g of (S)-amide.

On to `CO` [methanol], for which the “effect of methanol on the amidohydrolase” value is on record as “inhibitory effect” in data set [1] and “inhibit the reaction” in data set [1] (listed as Methanol).

For the molecule `C[C@@](O)(C(N)=O)C(F)(F)F` [(R)-2,2-HTFMPA, 3,3,3-trifluoro-2-hydroxy-2-methyl-propionamide], the Km (as a rule, the concentration of substrate that gives half-maximal velocity) in data set [1] (60° C. in 100 mM CAPS buffer, pH 10) was determined as 32 mM.

B1: amidohydrolase: (R)-stereospecific amidohydrolase from Klebsiella oxytoca PRS1/PRS1K17, SEQ ID No. 2; tested as heat-treated cell-free extract (protein, listed as Klebsiella oxytoca)
chain: MKWLEESIMAKRGVGAGRKPVTHHLTEEMQKEFHYTIGPYSTPVLTIEPGDRIIVDTRDAFEGAINSEQDIPSQLLKMPFLNPQNGPIMVNGAEKGDVLAVYIESMLPRGVDPYGICAMIPHFGGLTGTDLTAMLNDPLPEKVRMIKLDSEKVYWSKRHTLPYKPHIGTLSVSPEIDSINSLTPDNHGGNMDVPDIGPGSITYPLVRAPGGRLFIGDAHACQGDGEICGTAVEFASITTIKVDLIKNWQLSWPRMENAENIMSIGSARPLEDATRIAYRDLIYWLVEDFGFEQWDAYMLLSQCGKVRLGNMVDPKYTVGAMLNKNLLV
In turn, B1 returned a specific activity in data set [2] of 114 μg×min^−1×mg protein^−1.
